Source: patent US8367620B2, “Peptidic growth hormone secretagogues analog compounds and preparations thereof” (Centro de Ingenieria Genetica y Biotecnologia, priority 2006, dated 2013)
Read-outs that look alike come from different tables or passages of the source. Where a SMILES comes first, the peptide text is derived from it. Bridges are numbered along the chain shown (N, C = ends). Where no end group is shown, it is not given here.

How the values were obtained:
Litopenaeus vanamei [1] = experiment: Growing of shrimp larvae by dipping in solution of the compounds; assay type: in vivo; details: four dips of one hour every three days, 0.1 g/L
Description: (§1) Shrimp larvae were subjected two four dips, for one hour every three days with different peptidic GHS analogs at 0.1 g/L. The control group was subjected to the same frequency of dipping with 1 mg/L BSA.

[2] = tested on: tilapia Oreochromis sp. larvae; experiment: Growth stimulation of tilapia larvae by immersion; assay type: in vivo; details: immersion 100 μg/L, one hour twice a week, three weeks
Description: (§2) Growth stimulation experiments on tilapia Oreochromis sp. larvae were performed evaluating groups of 100 larvae with 0.01 g average, using the peptidic GHS analogs, in a 100 μg/L concentration, twice a week using an immersion time of one hour.

[3] = tested on: Post-larvae of Litopenaeus vanamei; experiment: Growth stimulation in shrimps by dietary supplementation; assay type: in vivo; details: compound at 1% in post-larvae crustacean diet
Description: The peptidic GHS analogs were included at 1% in a post-larvae crustacean diet. Post-larvae of Litopenaeus vanamei were fed with the aforementioned diet in parallel with a control group with 1% BSA addition. The effect was measured with an optical micrometer and weighing the animals in a 0.1 mg precision scale.

Litopenaeus vanamei [4] = experiment: Shrimp dipping experiment in production conditions; assay type: in vivo
Description: as §1
This experiment was also performed in production conditions for compounds A221, A228 y A233, with a 20% of higher survival compared with the controls, keeping a stimulation of 110% on the weight and 30% in the size, showing on the treated animals a better homogeneity on the size distribution with only a 30% and a 8% of variation coefficient in weight and size respectively, on contras with a 77% and 30% in the non treated group.

tilapias = experiment: Growth acceleration on juvenile tilapias treated intraperitoneally; assay type: in vivo; details: juvenile tilapia, ip 0.1 μg/g twice a week, three weeks
Description: The compounds were dissolved in a sodium phosphate (PBS) buffer solution and injected twice a week, during three weeks at 0.1 μg/g of humid fish weight (gbw). Compounds were applied individually to a group of 10 male tilapias with an average weight of 60.41±10.36 g and a control group with an average weight of 60.58±19.67 g was receiving PBS only as a control, measuring the average weight every week, all animals in the experiment were labelled with microchips (Stoelting Co. Wood Dale, USA.). for proper identification.

[5] = tested on: primary cultures of granular cerebellum cells; assay type: cell-based, Wistar rats
Description: Primary cultures of granular cerebellum cells were obtained from 7-9 days Wistar rats. After a rapid dissection, rat cerebellums were submerged in a cold solution and meningeal membranes were removed, each organ was transferred to a 2-3 ml fresh medium solution and finely sliced. Cells were dissociated using a Pasteur pipette and filtered through a nylon […] membrane (Falcon, Franklin Lakes, N.J.). The number of viable cells was determined by cell counting in a hematocytometer with tripan blue as a marker. Cells were cultured on polylysine covered 96 well plates at a density of 6250 cells in […] final volume. Cultures were kept at 37° C. in 5%. CO2 after 24 h, 10 μM of cytosine arabinofuranose (AraC; Sigma) was added to inhibit the proliferation of non-neuronal cells. The capacity of neural damage prevention was tested adding 500 μM hydrogen peroxide in different concentrations of peptidic GHS analog compounds, Cell survival was determined using the Promega non-radioactive cytotoxicity proliferation assay, Cell Titer 96 (Promega).

[6] = tested on: Doxorubicin induced Dilated Cardiomyopathy; experiment: Reversion of Doxorubicin induced dilated cardiomyopathy in rats, dose-response; assay type: in vivo, Wistar rats; details: rats with Dx induced DCM; for mortality in the group respect to placebo or lower concentrations / total VEF recovery: 50 μg/kg; for DCM reversion two weeks after the treatment: 50 μg/kg to 500 μg/kg; for DCM reversion at 4 weeks of treatment: 100 to 500 μg/kg; for VEF recovery at lower concentrations: doses lower than 50 μg/kg
Description: To assess if there is any dose-response effect and reversion of DCM, Wistar rats were subjected to a treatment with 2 mg/kg of Doxorubicin (Dx) for 8 weeks, after the treatment all rats with a VEF drop higher than 40% were selected, divided in groups of n=8 and treated with different doses of compounds A221, A228 or A233 as follows: • 500 μg/kg, • 250 μg/kg, • 100 μg/kg, • 50 μg/kg, • 25 μg/kg, • 10 μg/kg • Saline Solution.
(FIG. 4, a A221, b A228 and c A233).

lysozyme = experiment: Lysozyme levels in tilapia larvae treated by immersion; assay type: in vivo, Oreochromis sp.; details: immersion 100 μg/L
Description: as §2
During this experiment lysozyme levels were also monitored and an increase of this immunity marker was obtained in the treated animals as shown in table 8.

[7] = tested on: Litopenaeus vanamei post-larvae; experiment: Growth of shrimp post-larvae fed Artemia-bioencapsulated compounds; assay type: in vivo; details: Artemia bioencapsulated (10 mh/L, one hour), fed four times a day for one month
Description: The peptidic GHS analogs were bioencapsulated in Artemia to be fed to Litopenaeus vanamei post-larvae. For the encapsulation the compounds were added in a 10 mh/L left for an hour, harvested and washed. The animals were fed four times a day for one month while the control group was fed with BSA encapsulated Artemia The effect was measured with an optical micrometer and weighing the animals in a 0.1 mg precision scale.

[8] = tested on: Doxorubicin induced Dilated Cardiomyopathy; experiment: Prevention of Doxorubicin induced myocardial failure in rats (VEF, forced swimming); assay type: in vivo, Wistar rats; details: for ventricular ejection fraction (VEF) with respect to the healthy control: rats, Dx 2 mg/kg 8 weeks plus compound ip 500 μg/Kg, placebo VEF drop about 40%; for survival after forced swimming: Dx treated rats, compound ip 500 μg/Kg, 4° C. water 30 minutes, Dx-saline 45%
Description: To reproduce the physiopathogenic effects of a Dilated Cardiomyopathy (DCM) female Wistar rats of 160 g were treated with 2 mg/kg Doxorubicin (Dx) during 8 weeks. A group of this rats was also treated in parallel with compounds A221, A228 or A233 intraperitoneally at 500 μg/Kg during the 8 weeks of Dx treatment, another Dx treated group was also receiving saline solution as a placebo, and as a healthy control for the experiment another group of untreated Wistar rats of the same age was used. After the 8 week treatment all the rats were tested with an echocardiogram, to test the ventricular functionality and assess the ventricular ejection fraction (VEF).

PC12 cells = assay type: cell-based
Description: PC12 cells were stored in 75 cm^2 culture flasks on DMEM containing 5% bovine foetal serum and 10% horse serum, with 50 μg/ml gentamicin. Cells were incubated at 37° C. in 5% CO2. To induce differentiation cells were transferred at a density of 1×10^4 to polylysine covered 96 well plates in NGF supplemented DMEM media for 7 days, with medium replacement every 2-3 days. After differentiation cells were incubated with peptidic GHS analog compounds, at different concentrations for 72 h. Cell survival and proliferation was determined using the Promega non-radioactive cytotoxicity proliferation assay, Cell Titer 96, based in the conversion of 3-(4,5-dimethylthiazole-2-yl)-2,5-diphenyltetrazolium bromide (MTT) in to a spectrophotometrically detectable product. After deprivation of NGF medium is removed and 15 μl of the DMEM dissolved dye is added, after 4 hours of 37° C. incubation 100 μl of the stopping solution is added and absorbance is measured at 570 nm

IGF-I mRNA = IGF-I mRNA in liver and GH level of intraperitoneally injected tilapias; assay type: in vivo, tilapia; details: liver of intraperitoneally injected tilapias
Description: IGF-I mRNa was determined in the liver of intraperitoneally injected tilapias monitoring also the GH level time course, showing the peptidic GHS analog compounds as able to stimulate in fish the GH levels in the bloodstream and at incrementing the IGF-I mRNA levels after the injection of the compounds as shown in table 4.

[9] = 500 μM hydrogen peroxide, rat cerebellum granular cells, read-out: IC50 during the induced neuronal damage by Hydrogen Peroxide addition to a primary culture of neurons
[10] = differentiated PC12 cells, 72 h incubation, MTT, read-out: IC50 during the NGF deprivation induced neuronal death

Row | Compound | Size Inc. (%), control group growing = 100% (Litopenaeus vanamei [1]) | Weight Inc. (%), control group growing = 100% (Litopenaeus vanamei [1]) | Weight Inc. (%), control group growing = 100% [2] | Size Inc. (%), control group growing = 100% [3] | higher survival compared with the controls (Litopenaeus vanamei [4]) | stimulation in the size (Litopenaeus vanamei [4]) | stimulation on the weight (Litopenaeus vanamei [4]) | Weight Inc. (%), control group growing = 100% (tilapias) | IC50 [5] | mortality in the group respect to placebo or lower concentrations [6] | total VEF recovery [6] | DCM reversion two weeks after the treatment [6] | DCM reversion at 4 weeks of treatment [6] | VEF recovery at lower concentrations [6] | Lysozyme levels of the treated animals relative to the control group (lysozyme) | Size Inc. (%), control group growing = 100% [7] | ventricular ejection fraction (VEF) with respect to the healthy control [8] | Normalized IGF-I mRNA levels to a non related synthetic peptide control group (IGF-I mRNA) | IC50 [5, 9] | IC50 (PC12 cells; [10]) | other results
1 | NCC(=O)N[C@@H](CO)C(=O)N[C@H]1CCCCNC(=O)C[C@@H](C(=O)N[C@@H](CO)C(=O)N2CCC[C@H]2C(=O)N[C@@H](CCC(=O)O)C(=O)N[C@@H](Cc2c[nH]cn2)C(=O)N[C@@H](CCC(N)=O)C(=O)O)NC(=O)[C@H](Cc2ccccc2)NC1=O [Compound A221, GSKFDSPEHQ] (H-GSKFDSPEHQ-OH; lactam 3-5; N-terminus and C-terminus assumed) | 112.0% | 120.1% | 97.0% | 130.0% | 20% | 30% | 110% | 98.0% | 1.8 µM | somehow effective to reduce mortality | not effective for the total VEF recovery | partially reverts DCM | DCM reversion is complete | do not recovered VEF | 1.01 | 130.2% | slightly modified VEF | 1.32 |  |  | IC50 (PC12 cells; 72 h): 2.02 µM
2 | GKFDLSPEHQ [Compound A233, L-amino acid peptide with internal side-chain cycle, SEC; ID NO: 13] | 124.9% | 143.0% | 155.0% | 140.1% | 20% | 30% | 110% | 165.0% |  | somehow effective to reduce mortality | not effective for the total VEF recovery | partially reverts DCM | DCM reversion is complete | do not recovered VEF | 2.68 | 140.0% | slightly modified VEF | 1.69 | 3.56 µM | 5 µM | survival after forced swimming [8]: 100%
3 | GKFGDLSPEHQ [Compound A228, L-amino acid peptide with internal side-chain cycle, SEC; ID NO: 8] | 118.9% | 128.2% | 132.0% | 140.0% | 20% | 30% | 110% | 130.6% |  | somehow effective to reduce mortality | not effective for the total VEF recovery | partially reverts DCM | DCM reversion is complete | do not recovered VEF | 1.08 | 140.0% | slightly modified VEF | 1.18 | 1.77 µM | 3.99 µM | survival after forced swimming [8]: 100%
4 | HSKGYDLDH [Compound A227, L-amino acid peptide with internal side-chain cycle, SEC; ID NO: 7] | 118.5% | 128.6% | 140.6% | 139.0% |  |  |  | 139.9% |  |  |  |  |  |  | 1.52 | 140.0% |  | 1.28 | 2.26 µM | 3.06 µM | 
5 | SSDFKLYWG [Compound A224, L-amino acid peptide with internal side-chain cycle, SEC; ID NO: 4] | 116.0% | 127.0% | 130.0% | 131.2% |  |  |  | 132.7% |  |  |  |  |  |  | 1.37 | 130.0% |  | 1.41 | 3.2 µM | 2.37 µM | 
6 | STDFKPFAI [Compound A226, STDFKPFAI] | 112.2% | 120.1% | 120.4% | 130.4% |  |  |  | 122.4% | 3.58 µM |  |  |  |  |  | 1.17 | 132.0% |  | 1.13 |  |  | IC50 (PC12 cells; 72 h): 4.87 µM
